Assay results: ChEMBL document CHEMBL1201862, “PubChem BioAssay data set” (2004)
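Assay format: 96-well plates, 48-hour exposure. GI50 = concentration required for 50% inhibition of growth.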 Active and inactive are the calls of the source. No stated cut-off is given here; in the data, active = GI50 up to about 1.1 µM and inactive = higher. Residues, ends and D or L forms follow the SMILES beside them. *: point of attachment. Boc = CC(C)(C)OC(=O)*; OBn = c1ccc(CO*)cc1

Tests used:
Test in all cases: DTP human tumour cell line panel, 48 h
[1] = system: A549
[2] = system: SNB-19
[3] = system: SN12C
[4] = system: 786-0
[5] = system: OVCAR-5
[6] = system: OVCAR-8
[7] = system: TK-10
[8] = system: HCT-116
[9] = system: EKVX
[10] = system: IGROV-1
[11] = system: DU-145
[12] = system: MDA-MB-231
[13] = system: T47D
[14] = system: UACC-257
[15] = system: MDA-MB-435
[16] = system: COLO 205
[17] = system: K562
[18] = system: SR

Structure (SMILES)	GI50 [1]	GI50 [2]	GI50 [3]	GI50 [4]	GI50 [5]	GI50 [6]	GI50 [7]	GI50 [8]	GI50 [9]	GI50 [10]	GI50 [11]	GI50 [12]	GI50 [13]	GI50 [14]	GI50 [15]	GI50 [16]	GI50 [17]	GI50 [18]
CCOC(=O)C1=C(C)NC(=O)NC1c1ccc(N(CCCl)CCCl)cc1Cl (configuration not stated)	13.7 µM (inactive)	17.3 µM (inactive)	16.3 µM (inactive)	15.8 µM (inactive)	17.9 µM (inactive)	12.9 µM (inactive)	18.3 µM (inactive)	14.3 µM (inactive)	22.5 µM (inactive)	15.1 µM (inactive)	18.2 µM (inactive)	13.6 µM (inactive)	5.77 µM (inactive)	16 µM (inactive)	19 µM (inactive)	18.6 µM (inactive)	12 µM (inactive)	
CCCCOC(=O)C(=O)C(CCC(=O)c1ccc(C)cc1)C(=O)C=C(C)C (configuration not stated)	> 100 µM (inactive)	52.7 µM (inactive)	> 100 µM (inactive)	> 100 µM (inactive)	> 100 µM (inactive)	> 100 µM (inactive)	> 100 µM (inactive)	> 100 µM (inactive)	> 100 µM (inactive)	> 100 µM (inactive)		> 100 µM (inactive)	> 100 µM (inactive)	> 100 µM (inactive)	> 100 µM (inactive)		> 100 µM (inactive)	> 100 µM (inactive)
CNC(=S)NN=C1NCCCN1	> 100 µM (inactive)	> 100 µM (inactive)		> 100 µM (inactive)	> 100 µM (inactive)	> 100 µM (inactive)	> 100 µM (inactive)	> 100 µM (inactive)	> 100 µM (inactive)	> 100 µM (inactive)		> 100 µM (inactive)	> 100 µM (inactive)	> 100 µM (inactive)	> 100 µM (inactive)	> 100 µM (inactive)	> 100 µM (inactive)	> 100 µM (inactive)
CN1C(=O)C(/C=N/NC(=O)c2cccnc2)C(N)N(C)C1=O (configuration not stated)	> 100 µM (inactive)	> 100 µM (inactive)	> 100 µM (inactive)	> 100 µM (inactive)	> 100 µM (inactive)	> 100 µM (inactive)	> 100 µM (inactive)	> 100 µM (inactive)	> 100 µM (inactive)	> 100 µM (inactive)	> 100 µM (inactive)	> 100 µM (inactive)	> 100 µM (inactive)	> 100 µM (inactive)	> 100 µM (inactive)	> 100 µM (inactive)	> 100 µM (inactive)	
COc1ccc2c(c1)nc1n2C(c2c(F)cccc2Cl)SC1 (configuration not stated)	4.81 µM (inactive)		> 22.6 µM (inactive)	5.68 µM (inactive)	> 37.2 µM (inactive)	3.92 µM (inactive)	> 25.9 µM (inactive)	4.14 µM (inactive)	26.1 µM (inactive)	6.17 µM (inactive)	1.49 µM (inactive)	3.49 µM (inactive)	3.32 µM (inactive)	18.2 µM (inactive)	0.703 µM (active)	3.98 µM (inactive)	> 100 µM (inactive)	
CCOC(=O)c1sc2c(c1OC(=O)c1cc(OC)c(OC)c(OC)c1)c(=O)n(-c1ccccc1)c(=S)n2-c1ccccc1	> 100 µM (inactive)	> 100 µM (inactive)	90.2 µM (inactive)	84.1 µM (inactive)	> 100 µM (inactive)	74.8 µM (inactive)	> 100 µM (inactive)	> 100 µM (inactive)	45.5 µM (inactive)	> 100 µM (inactive)	> 100 µM (inactive)	56.6 µM (inactive)	41.6 µM (inactive)	> 100 µM (inactive)	79.1 µM (inactive)	> 100 µM (inactive)	65 µM (inactive)	
COc1cc2c(c(OC)c1OC)C(=O)[C@H](O)[C@H]2NC(N)=O	> 100 µM (inactive)	> 100 µM (inactive)	> 100 µM (inactive)	> 100 µM (inactive)	76.7 µM (inactive)	> 100 µM (inactive)	> 100 µM (inactive)	79.4 µM (inactive)	99.5 µM (inactive)	49.5 µM (inactive)	> 100 µM (inactive)	86.3 µM (inactive)		85.5 µM (inactive)	> 100 µM (inactive)	50.7 µM (inactive)	> 100 µM (inactive)	
Cc1ccc(NC(S)=Nc2c(C)n(C)n(-c3ccccc3)c2=O)cc1	> 100 µM (inactive)	> 100 µM (inactive)		> 100 µM (inactive)	> 100 µM (inactive)	> 100 µM (inactive)	> 100 µM (inactive)	> 100 µM (inactive)	> 100 µM (inactive)	> 100 µM (inactive)	> 100 µM (inactive)	> 100 µM (inactive)		> 100 µM (inactive)	> 100 µM (inactive)	> 100 µM (inactive)	> 100 µM (inactive)	> 100 µM (inactive)
Cc1nc2cccc([N+](=O)[O-])c2c(NCCCN(C)C)c1C	60.4 µM (inactive)	> 100 µM (inactive)	11.5 µM (inactive)	> 61.5 µM (inactive)	27 µM (inactive)	36.1 µM (inactive)	> 40.9 µM (inactive)	20.9 µM (inactive)	> 31.6 µM (inactive)	> 100 µM (inactive)	78.2 µM (inactive)		> 100 µM (inactive)	23 µM (inactive)	71.4 µM (inactive)	22.3 µM (inactive)	31.7 µM (inactive)	> 34.5 µM (inactive)
COc1cccc(NC(=O)c2c(N)n[nH]c2SC)c1	> 100 µM (inactive)	> 100 µM (inactive)	> 100 µM (inactive)	> 100 µM (inactive)	> 100 µM (inactive)	> 100 µM (inactive)	> 100 µM (inactive)	> 100 µM (inactive)	> 100 µM (inactive)	> 100 µM (inactive)		> 100 µM (inactive)		> 100 µM (inactive)	> 100 µM (inactive)	> 100 µM (inactive)	> 100 µM (inactive)	
COC(=O)c1ccc(C)cc1CC1Cc2cccc(C)c2C1=O (configuration not stated)	6.58 µM (inactive)	4.4 µM (inactive)	10.2 µM (inactive)	14.6 µM (inactive)	14 µM (inactive)	5.08 µM (inactive)	12.9 µM (inactive)	3.68 µM (inactive)	2.94 µM (inactive)	7.96 µM (inactive)	11.9 µM (inactive)	7.1 µM (inactive)	5.85 µM (inactive)	11.7 µM (inactive)	1.48 µM (inactive)	4.9 µM (inactive)	2.77 µM (inactive)	
CC(C)C(NC(=O)C(Cc1ccccc1)NC(=O)OC(C)(C)C)C(=O)NCC(=O)OCc1ccccc1 (stereo not drawn) (Boc-Phe-Val-Gly-OBn; configuration not given here)		25.6 µM (inactive)	18 µM (inactive)	17.9 µM (inactive)	15.1 µM (inactive)	19.5 µM (inactive)	13 µM (inactive)	23.7 µM (inactive)	20.4 µM (inactive)	14.7 µM (inactive)	14.3 µM (inactive)	16.6 µM (inactive)	18.7 µM (inactive)	20.4 µM (inactive)	6.92 µM (inactive)	20.6 µM (inactive)	7.76 µM (inactive)	
CC(C)(C)OC(=O)n1c(-c2ccccc2F)cc(=O)c2cc3c(cc21)OCO3	0.103 µM (active)	0.145 µM (active)		0.0541 µM (active)	6.53 µM (inactive)	0.0906 µM (active)	4.66 µM (inactive)	0.0426 µM (active)			0.0451 µM (active)	3.68 µM (inactive)	16.8 µM (inactive)		0.0214 µM (active)	0.0942 µM (active)		0.0327 µM (active)
CSC(=S)NN=C1CCCCC1	26.7 µM (inactive)	96.6 µM (inactive)	24.4 µM (inactive)	37.3 µM (inactive)		8.93 µM (inactive)	24.9 µM (inactive)	27.2 µM (inactive)	22.8 µM (inactive)	12.7 µM (inactive)	27.4 µM (inactive)	17.6 µM (inactive)	55.1 µM (inactive)	33.9 µM (inactive)	18.7 µM (inactive)	47.1 µM (inactive)	27.4 µM (inactive)	
Cc1nc2c(Br)cc(Br)cc2c(=O)n1-c1ccccc1NC1OC(CO)C(O)C(O)C1O (configuration not stated)		> 100 µM (inactive)	> 100 µM (inactive)	> 100 µM (inactive)	> 100 µM (inactive)	> 100 µM (inactive)	> 100 µM (inactive)	> 100 µM (inactive)	> 100 µM (inactive)	> 100 µM (inactive)	> 100 µM (inactive)	> 100 µM (inactive)	> 100 µM (inactive)	> 100 µM (inactive)	> 100 µM (inactive)	> 100 µM (inactive)	> 100 µM (inactive)	
COC(=O)CCC(C)C1CCC2C3C(C[C@H](OC(C)=O)[C@]12C)[C@@]1(C)CCC2(C[C@H]1C[C@H]3OC(C)=O)OOC1(CC[C@]3(C)C4C[C@H](OC(C)=O)[C@]5(C)C(C(C)CCC(=O)OC)CCC5C4[C@H](OC(C)=O)C[C@@H]3C1)OO2 (some centres not stated)	91.8 µM (inactive)	> 100 µM (inactive)	83.2 µM (inactive)	> 100 µM (inactive)	> 100 µM (inactive)	> 100 µM (inactive)	> 100 µM (inactive)	> 100 µM (inactive)	> 100 µM (inactive)	> 100 µM (inactive)	73.1 µM (inactive)	> 100 µM (inactive)		> 100 µM (inactive)	> 100 µM (inactive)	> 100 µM (inactive)	> 100 µM (inactive)	44.3 µM (inactive)
CC(C)=Nn1cnc(C(=N)C#N)c1N	> 100 µM (inactive)	> 100 µM (inactive)		> 100 µM (inactive)	> 100 µM (inactive)	> 100 µM (inactive)	> 100 µM (inactive)	> 100 µM (inactive)	> 100 µM (inactive)	> 100 µM (inactive)	> 100 µM (inactive)			> 100 µM (inactive)		> 100 µM (inactive)	> 100 µM (inactive)	> 100 µM (inactive)
